Drawing on patent US20210380548A1, “Fused [1,2,4]Thiadiazine Derivatives Which Act as KAT Inhibitors of the MYST Family” (CTxT Pty Limited, priority 2017, published 2021), this text covers IC50 for twelve compounds.

One may read the IC50 as the concentration at which inhibition is half-maximal.

Assay [1] has as its target T1, HBO-KAT7 (Homo sapiens, UniProt O95251).
T1 construct: encoding amino acid residues 325 to 611 (Uniprot 095251-1) of human KAT7; made in house; host or cells: E. coli BL21 DE3 RIL
Briefly: Acetyltransferase biochemical assay (AlphaScreen), KAT7. The conditions noted are these: Table 3 (HBO-KAT7); 0.4 μM Acetyl coenzyme A, histone H3.1, 40 nM enzyme.

Assay [2] deals with histone H3K14 acetylation (HBO1 mediated) in U2OS cells. Briefly: Histone H3 Lysine 14 Acetylation Biomarker Assay (96 well, U2OS). It is filed as cell-based. The conditions noted are these: Table 6, H3K14ac, 24 hours incubation, serum free medium. As for the experimental part:
Compounds may be tested for their ability to inhibit acetylation of the histone H3K14 marker (which is HBO1 mediated) in the following assay:
The cell line U2OS was seeded at a density of 12,000 cells per well in 96 well optical quality tissue culture plates in RPMI medium and 10% foetal bovine serum, and allowed to adhere for 24 hours under standard culture conditions (37 degree Celsius, 5% CO2). At the end of this period the cells were washed with serum free medium. Compound dilutions prepared in DMSO were added to the serum free medium, with negative control wells reserved for treatment with DMSO only and positive controls receiving a potent inhibitor compound (e.g. Example 36 in WO2016/198507) at 10 μM concentration. After incubation for 24 hours, the cells were fixed with 3.7% formaldehyde in PBS for 20 minutes at room temperature, washed with phosphate buffer saline containing 0.1% Tween 20 and blocked with Odyssey blocking buffer (LI-COR, Lincoln, Nebr.) containing 0.1% TritonX100. Anti-H3K14ac specific antibody (Cell Signalling Technologies) in Odyssey blocking buffer containing 0.1% Tween 20 was added and incubated for 14 hours at 4 degree Celsius. After washing, a secondary antibody labelled with Alexa647 dye (LifeTechnologies) and Hoechst 33342 (1 μg/mL, SigmaAldrich) were added for 1 hour incubation. Plates were washed and read on a PerkinElmer Phenix high content imaging platform. Using a Columbus image analysis pipeline, individual nuclei were located by Hoechst 33342 stain and the acetylation level was calculated from the Alexa647-related intensity in the same area. The resulting mean intensity per cell was directly converted to percent inhibition relative to controls on the same plate and the data fitted against a four-parameter logistic model to determine the 50% inhibitory concentration (IC50).

Assay [3] has as its target T2, TIP60-KAT5 (Homo sapiens, UniProt Q92993).
T2 construct: encoding amino acid residues 2 to 461 (Uniprot Q92993-2) of human KAT5 isoform; made in house; host or cells: E. coli BL21 DE3
Briefly: Acetyltransferase biochemical assay (AlphaScreen), KAT5. The following applies: Table 1 (TIP60-KAT5); 0.4 μM Acetyl coenzyme A, histone H4, 10 nM enzyme. (Alpha assays give light when donor and acceptor beads are brought close together.)

Assay [4] addresses T3, MOZ-KAT6A (Homo sapiens, UniProt Q92794, A567V).
T3 construct: encoding amino acid residues 507 to 778 (Uniprot Q92794-1) of human KAT6A; made in house; host or cells: E. coli BL21 DE3
The experiment in a line: Acetyltransferase biochemical assay (AlphaScreen), KAT6A. The following applies: Table 2 (MOZ-KAT6A); 10 μM Acetyl coenzyme A, histone H3.1, 5 nM enzyme.

Assay [5] concerns the target T4, MOF-KAT8 (Homo sapiens, UniProt Q9H7Z6).
T4 sequence (Q9H7Z6 177-447): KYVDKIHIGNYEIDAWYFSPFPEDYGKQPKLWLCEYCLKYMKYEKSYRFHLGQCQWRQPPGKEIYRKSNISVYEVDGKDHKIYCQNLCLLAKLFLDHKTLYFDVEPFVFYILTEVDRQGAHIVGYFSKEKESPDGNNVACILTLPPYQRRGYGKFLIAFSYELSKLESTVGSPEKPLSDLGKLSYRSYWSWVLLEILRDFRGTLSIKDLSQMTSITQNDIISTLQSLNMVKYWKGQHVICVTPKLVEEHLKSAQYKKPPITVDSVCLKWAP
The experiment in a line: Acetyltransferase biochemical assay (AlphaScreen), KAT8. The following applies: Table 4 (MOF-KAT8); 0.4 μM Acetyl coenzyme A, histone H4, 20 nM enzyme.

For assay [6], the target named is T4, MOF-KAT8. Briefly: Revised Acetyltransferase Biochemical Assay, KAT8.
Assay [7] concerns the target T2, TIP60-KAT5. Briefly: Revised Acetyltransferase Biochemical Assay, KAT5. The conditions noted are these: 10 nM KAT5, 1 μM AcCoA, 100 nM histone H4, 90 min.
Assay [8] addresses T1, HBO-KAT7. The experiment in a line: Revised Acetyltransferase Biochemical Assay, KAT7. The following applies: Table 9 (HBO-KAT7), 1 μM Acetyl coenzyme A.
Assay [9] deals with histone H3K23 acetylation (KATE mediated) in U2OS cells. The experiment in a line: Histone H3 Lysine 23 Acetylation Biomarker Assay (U2OS). The class given is cell-based. The conditions noted are these: Homo sapiens, 96 well, 24 hours incubation. The method, boiled down: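 U2OS cells were treated with compound for 24 h, then fixed and immunostained for H3K23ac with Hoechst nuclear counterstain. Per-nucleus Alexa647 intensity was quantified by high-content imaging and converted to % inhibition against DMSO and 10 μM reference-inhibitor controls. IC50 was derived from a four-parameter logistic fit.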

Assay [10] concerns the target T3, MOZ-KAT6A. Briefly: Revised Acetyltransferase Biochemical Assay, KAT6A. The conditions noted are these: Table 8 (MOZ-KAT6A), 1 μM Acetyl coenzyme A.
In a further assay the target is T5, QKF-KAT6B (Homo sapiens, UniProt Q8WYB5).
T5 construct: purchased SignalChem K315-381BG
T5 sequence (Q8WYB5 whole entry): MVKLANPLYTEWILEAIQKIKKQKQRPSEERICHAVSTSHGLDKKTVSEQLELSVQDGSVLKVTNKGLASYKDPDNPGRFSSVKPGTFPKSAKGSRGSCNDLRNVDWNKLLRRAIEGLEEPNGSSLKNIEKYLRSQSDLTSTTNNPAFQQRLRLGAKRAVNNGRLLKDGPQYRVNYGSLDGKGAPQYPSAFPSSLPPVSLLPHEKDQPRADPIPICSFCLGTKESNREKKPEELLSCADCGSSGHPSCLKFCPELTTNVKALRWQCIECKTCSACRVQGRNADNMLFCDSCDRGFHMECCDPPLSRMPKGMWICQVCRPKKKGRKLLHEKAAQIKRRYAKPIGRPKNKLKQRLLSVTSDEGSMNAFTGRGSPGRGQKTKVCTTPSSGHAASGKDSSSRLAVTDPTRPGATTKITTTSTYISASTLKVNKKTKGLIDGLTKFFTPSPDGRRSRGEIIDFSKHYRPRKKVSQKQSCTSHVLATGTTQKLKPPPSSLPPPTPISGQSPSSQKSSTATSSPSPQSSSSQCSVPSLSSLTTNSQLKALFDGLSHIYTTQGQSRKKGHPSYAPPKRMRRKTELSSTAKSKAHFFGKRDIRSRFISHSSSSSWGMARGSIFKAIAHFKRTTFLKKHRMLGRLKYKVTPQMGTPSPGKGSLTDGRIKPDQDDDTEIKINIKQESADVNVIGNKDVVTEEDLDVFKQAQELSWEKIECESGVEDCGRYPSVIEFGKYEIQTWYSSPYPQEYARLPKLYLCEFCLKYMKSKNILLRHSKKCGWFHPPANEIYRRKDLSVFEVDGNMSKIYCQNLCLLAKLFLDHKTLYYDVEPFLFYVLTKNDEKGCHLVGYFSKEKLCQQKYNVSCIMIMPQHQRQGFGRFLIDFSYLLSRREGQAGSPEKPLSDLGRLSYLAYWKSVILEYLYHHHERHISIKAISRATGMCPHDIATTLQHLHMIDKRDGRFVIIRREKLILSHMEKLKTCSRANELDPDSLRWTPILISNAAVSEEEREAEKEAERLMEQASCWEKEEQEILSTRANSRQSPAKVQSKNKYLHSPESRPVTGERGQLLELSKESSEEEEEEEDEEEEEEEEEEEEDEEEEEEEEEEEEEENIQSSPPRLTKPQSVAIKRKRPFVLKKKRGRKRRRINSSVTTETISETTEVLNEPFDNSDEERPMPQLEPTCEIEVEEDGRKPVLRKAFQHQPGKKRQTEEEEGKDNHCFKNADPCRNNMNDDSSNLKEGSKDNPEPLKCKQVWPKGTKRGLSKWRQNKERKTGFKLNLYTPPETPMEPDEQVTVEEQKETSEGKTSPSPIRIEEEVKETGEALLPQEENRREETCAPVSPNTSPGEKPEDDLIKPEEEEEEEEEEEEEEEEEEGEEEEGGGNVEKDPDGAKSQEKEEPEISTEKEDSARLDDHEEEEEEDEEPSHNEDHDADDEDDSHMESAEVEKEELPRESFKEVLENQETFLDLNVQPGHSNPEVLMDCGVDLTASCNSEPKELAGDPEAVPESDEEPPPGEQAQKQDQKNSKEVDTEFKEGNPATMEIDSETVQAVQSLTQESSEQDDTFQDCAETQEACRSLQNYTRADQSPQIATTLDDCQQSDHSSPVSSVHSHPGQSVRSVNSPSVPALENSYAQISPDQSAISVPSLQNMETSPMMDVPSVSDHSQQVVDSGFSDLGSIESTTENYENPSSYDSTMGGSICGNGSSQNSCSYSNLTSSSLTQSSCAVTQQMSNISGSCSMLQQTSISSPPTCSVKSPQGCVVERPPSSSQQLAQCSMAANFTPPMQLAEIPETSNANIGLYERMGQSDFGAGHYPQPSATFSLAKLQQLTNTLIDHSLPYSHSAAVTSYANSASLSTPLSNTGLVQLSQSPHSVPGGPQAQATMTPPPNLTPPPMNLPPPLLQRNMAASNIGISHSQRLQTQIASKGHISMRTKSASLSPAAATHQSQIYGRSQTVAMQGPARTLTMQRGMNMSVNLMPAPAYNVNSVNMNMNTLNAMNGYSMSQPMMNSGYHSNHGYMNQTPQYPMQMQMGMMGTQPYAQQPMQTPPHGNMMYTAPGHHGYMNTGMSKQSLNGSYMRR
Briefly: Revised Acetyltransferase Biochemical Assay, KAT6B. The conditions noted are these: 8 nM KAT6B, 1 μM AcCoA, 100 nM histone H3.1, 90 min. The source says: KAT6B was obtained from SignalChem, catalog ID: K315-381BG

T1 sequence (O95251 with tags, fused parts or gaps): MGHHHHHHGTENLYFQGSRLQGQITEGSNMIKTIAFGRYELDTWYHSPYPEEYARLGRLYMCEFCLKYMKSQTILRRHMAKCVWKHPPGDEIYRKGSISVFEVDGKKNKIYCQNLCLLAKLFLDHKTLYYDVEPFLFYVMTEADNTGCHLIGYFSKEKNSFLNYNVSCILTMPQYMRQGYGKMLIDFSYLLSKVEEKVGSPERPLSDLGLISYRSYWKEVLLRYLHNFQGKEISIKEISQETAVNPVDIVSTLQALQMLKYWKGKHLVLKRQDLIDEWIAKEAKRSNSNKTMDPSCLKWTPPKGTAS
T3 sequence (Q92794 507-778 A567V limits assumed): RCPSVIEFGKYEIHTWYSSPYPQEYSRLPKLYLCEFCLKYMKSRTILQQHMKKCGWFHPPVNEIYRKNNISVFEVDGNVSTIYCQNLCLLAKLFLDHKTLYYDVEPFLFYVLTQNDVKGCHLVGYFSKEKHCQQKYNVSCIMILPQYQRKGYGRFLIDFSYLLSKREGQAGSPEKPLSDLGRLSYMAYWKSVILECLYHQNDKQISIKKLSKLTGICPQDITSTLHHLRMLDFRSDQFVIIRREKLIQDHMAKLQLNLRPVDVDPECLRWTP
T2 sequence (Q92993 2-461 isoform Q92993-2): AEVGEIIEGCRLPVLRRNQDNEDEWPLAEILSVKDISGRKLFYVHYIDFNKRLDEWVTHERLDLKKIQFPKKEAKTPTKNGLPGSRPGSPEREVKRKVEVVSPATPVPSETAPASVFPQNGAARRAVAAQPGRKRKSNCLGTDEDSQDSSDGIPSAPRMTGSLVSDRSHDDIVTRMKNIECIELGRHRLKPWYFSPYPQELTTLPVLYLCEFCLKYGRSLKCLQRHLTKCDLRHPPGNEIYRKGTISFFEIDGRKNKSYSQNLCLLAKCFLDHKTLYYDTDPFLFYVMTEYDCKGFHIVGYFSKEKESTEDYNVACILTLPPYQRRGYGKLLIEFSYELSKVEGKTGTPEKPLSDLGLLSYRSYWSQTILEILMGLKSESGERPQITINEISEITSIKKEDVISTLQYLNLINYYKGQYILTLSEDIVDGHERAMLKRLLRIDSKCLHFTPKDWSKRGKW

As to `O=C(NCC(c1ccccc1)c1ncco1)C1=Nc2ccccc2S(=O)(=O)N1` (single isomer, unassigned) [Example 136], the IC50 was 633 nM at HBO-KAT7 [1]; 7890 nM in assay [2]; 27600 nM on TIP60-KAT5 [3]; 8030 nM on MOZ-KAT6A [4]; greater than 125000 nM against MOF-KAT8 [5].

In the case of `[C-]#[N+]c1ccc2c(c1)S(=O)(=O)NC(C(=O)NCC(c1ccccc1)c1ncco1)=N2` (single isomer, unassigned) [Example 142], the IC50 turned out to be 6570 nM at HBO-KAT7 [1]; 17500 nM in assay [2]; 4270 nM on TIP60-KAT5 [3]; 21.1 nM against MOZ-KAT6A [4]; 56700 nM against MOF-KAT8 [5].

Regarding `[C-]#[N+]c1ccc2c(c1)S(=O)(=O)NC(C(=O)NCC(c1ccccc1)c1ncco1)=N2` (single isomer, unassigned) [Example 143], the IC50 on HBO-KAT7 [1] came to 1750 nM; in assay [2], 14600 nM; against TIP60-KAT5 [3] it was 13800 nM; on MOZ-KAT6A [4], 346 nM; against MOF-KAT8 [5], 30000 nM.

Turning to `O=C(NCC(c1ccccc1)c1ncco1)C1=Nc2ccc(O)cc2S(=O)(=O)N1` (centres unmarked) [Example 8, 7-Hydroxy-N-(2-(oxazol-2-yl)-2-phenylethyl)-2H-benzo[e][1,2,4]thiadiazine-3-carboxamide 1,1-dioxide], the IC50 at HBO-KAT7 [1] was 1200 nM; in assay [2] (Homo sapiens, 24 h) it was 9680 nM; against MOF-KAT8 [6] it was 10500 nM; at TIP60-KAT5 [7], 2010 nM; at HBO-KAT7 [8], 134 nM; at TIP60-KAT5 [3], 4400 nM. Further, the IC50 in assay [9] was 5860 nM; against MOZ-KAT6A [10], 11 nM; at QKF-KAT6B it was 210 nM.

As for `O=C(NCC(c1ccccc1)c1ncco1)C1=Nc2ccc(F)cc2S(=O)(=O)N1` (centres unmarked) [Example 36, 7-fluoro-N-(2-(oxazol-2-yl)-2-phenylethyl)-2H-benzo[e][1,2,4]thiadiazine-3-carboxamide 1,1-dioxide], the IC50 turned out to be 538 nM against HBO-KAT7 [1]; 9980 nM in assay [2] (Homo sapiens, 24 h); 5470 nM at TIP60-KAT5 [7]; 3380 nM on HBO-KAT7 [8]; 19600 nM on TIP60-KAT5 [3]; 661 nM against MOZ-KAT6A [4]. The values for the IC50 (in assay [9]; at MOZ-KAT6A [10]; against QKF-KAT6B) were 263 nM, 74 nM and 724 nM, respectively.

On to `C#Cc1ccc2c(c1)S(=O)(=O)NC(C(=O)NCC(c1ccccc1)c1ccccc1)=N2` [Example 38, N-(2,2-diphenylethyl)-7-ethynyl-2H-benzo[e][1,2,4]thiadiazine-3-carboxamide 1,1-dioxide], for which the IC50 on HBO-KAT7 [1] was found to be 154 nM; in assay [2] (Homo sapiens, 24 h) it was 1500 nM; against TIP60-KAT5 [3] it was 1960 nM; against MOZ-KAT6A [4] it was 532 nM.

As to `O=C(NCC(c1ccc(F)cc1)c1ccccn1)C1=Nc2ccc(Br)cc2S(=O)(=O)N1` (centres unmarked) [Example 39, 7-bromo-N-(2-(4-fluorophenyl)-2-(pyridin-2-yl)ethyl)-2H-benzo[e][1,2,4]thiadiazine-3-carboxamide 1,1-dioxide], the concentration for half-maximal inhibition (IC50) amounted to 192 nM on HBO-KAT7 [1]; 2490 nM in assay [2] (Homo sapiens, 24 h); 3060 nM against TIP60-KAT5 [7]; 299 nM against HBO-KAT7 [8]; 5880 nM on TIP60-KAT5 [3]; 32 nM against MOZ-KAT6A [10].

With `Cc1noc(C(CNC(=O)C2=Nc3ccc(I)cc3S(=O)(=O)N2)c2ccccc2)n1` (centres unmarked) [Example 56], the IC50 on HBO-KAT7 [1] was 219 nM; in [2] (Homo sapiens, 24 h), 650 nM; at MOF-KAT8 [6], 1300 nM; against TIP60-KAT5 [7], 61 nM; against HBO-KAT7 [8], 63 nM; on TIP60-KAT5 [3], 269 nM. The concentration for half-maximal inhibition (IC50) against MOZ-KAT6A [4] is 80.9 nM; at MOZ-KAT6A [10], 10 nM.

With `O=C(NCC(c1ccccc1)n1cccn1)C1=Nc2ccc(Br)cc2S(=O)(=O)N1` (centres unmarked) [Example 84], the IC50 on HBO-KAT7 [1] turned out to be 83.6 nM; in assay [2] (Homo sapiens, 24 h), 765 nM; at MOF-KAT8 [6], 77000 nM; against TIP60-KAT5 [7], 426 nM; at HBO-KAT7 [8], 62 nM; at TIP60-KAT5 [3], 778 nM. Moreover, the IC50 against MOZ-KAT6A [4] amounted to 256 nM; against MOZ-KAT6A [10] it was 17 nM; against MOF-KAT8 [5], 33300 nM.

`O=C(NCCc1ccccc1OC(F)(F)F)C1=Nc2ccc(I)cc2S(=O)(=O)N1` [Example 92]: the concentration for half-maximal inhibition (IC50) came out at 675 nM against HBO-KAT7 [1]; 1390 nM in assay [2] (Homo sapiens, 24 h); 367 nM on TIP60-KAT5 [3]; 783 nM at MOZ-KAT6A [4]; 21800 nM at MOF-KAT8 [5].

With `O=C(NCCc1ccccc1)C1=Nc2ccc(I)cc2S(=O)(=O)N1` [Example 93], the IC50 against HBO-KAT7 [1] was 9590 nM; in assay [2] (Homo sapiens, 24 h), 30000 nM; on MOF-KAT8 [6] it was greater than 125000 nM; on TIP60-KAT5 [7], 2000 nM; on HBO-KAT7 [8], 1790 nM; against TIP60-KAT5 [3] it was 9200 nM. In addition, the 50% inhibitory concentration (IC50) at MOZ-KAT6A [4] was 2200 nM; in assay [9], greater than 10000 nM; against MOZ-KAT6A [10], 98 nM; against QKF-KAT6B it was 1780 nM.

Take `O=C(NCCc1ccccc1OC(F)F)C1=Nc2ccc(Br)cc2S(=O)(=O)N1` [Example 115]: the IC50 against HBO-KAT7 [1] came to 229 nM; in assay [2] (Homo sapiens, 24 h), 1060 nM; at TIP60-KAT5 [3], 423 nM; against MOZ-KAT6A [4], 476 nM; at MOF-KAT8 [5] it was 31200 nM.
